{
  "source": "paper PMC13062086",
  "about": "“A sstR2-targeted radiohybrid theranostic agent for PET imaging and β^- therapy with excellent preclinical performance” (npj Imaging, 2026)",
  "origin": "cited, not measured here",
  "data": [
    {"target": "T1, human serum albumin (HSA) (Homo sapiens, UniProt P02768)", "T1 construct": "purchased Daicel, Tokyo, Japan Chiralpak HSA column (50 × 3 mm, 5 μm, H13 h-2433)", "T1 sequence (P02768 25-609)": "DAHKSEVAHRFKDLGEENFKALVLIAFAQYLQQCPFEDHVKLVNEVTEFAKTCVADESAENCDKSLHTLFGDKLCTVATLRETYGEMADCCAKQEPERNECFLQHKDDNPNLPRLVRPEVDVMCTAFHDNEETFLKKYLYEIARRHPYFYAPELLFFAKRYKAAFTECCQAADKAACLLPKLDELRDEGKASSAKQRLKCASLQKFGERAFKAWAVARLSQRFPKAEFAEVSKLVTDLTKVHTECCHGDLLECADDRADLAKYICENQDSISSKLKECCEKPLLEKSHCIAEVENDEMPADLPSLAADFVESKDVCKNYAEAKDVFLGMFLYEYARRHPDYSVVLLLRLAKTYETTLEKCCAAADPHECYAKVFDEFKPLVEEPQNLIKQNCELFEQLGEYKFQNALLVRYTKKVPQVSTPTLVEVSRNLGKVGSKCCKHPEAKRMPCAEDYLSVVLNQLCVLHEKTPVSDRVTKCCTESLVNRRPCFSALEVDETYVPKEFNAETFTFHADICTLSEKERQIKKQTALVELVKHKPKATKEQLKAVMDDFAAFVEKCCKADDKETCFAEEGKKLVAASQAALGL", "set-up": "method as in earlier work", "conditions": "literature-known values for calibration curve ref 2-3 (SI; main text 45, 46)", "units": {"HSA-binding": "%"}, "values": [
      {"smiles": "Nc1ccccc1", "note": "[Aniline]", "HSA-binding": 14.06},
      {"smiles": "O=C(O)c1ccccc1", "note": "[Benzoic acid]", "HSA-binding": 34.27},
      {"smiles": "OCc1ccccc1", "note": "[Benzyl alcohol]", "HSA-binding": 13.15},
      {"smiles": "COc1ccc(Cl)cc1C(=O)NCCc1ccc(S(=O)(=O)NC(=O)NC2CCCCC2)cc1", "note": "[Glibenclamide]", "HSA-binding": 99.00},
      {"smiles": "Oc1ccccc1", "note": "[Phenol]", "HSA-binding": 20.69},
      {"smiles": "CCCN(CCC)S(=O)(=O)c1ccc(C(=O)O)cc1", "note": "[Probenecid]", "HSA-binding": 95.00}
    ]}
  ]
}
